Patent US6933296B2, “Compounds effective as β2-adrenoreceptor agonists as well as PDE4-inhibitors” (Altana Pharma B.V., priority 2000, dated 2005)

How the values were obtained:
PDE4 = assay: Inhibition of PDE4 activity (cytosol from human neutrophils, [3H]cAMP hydrolysis); type: biochemical; conditions: 0.5 μM cAMP, Motapizone 1 μM, DMSO 0.5% for (some of) examples 1-19, 1% from example 20
Method: Method for Measuring Inhibition of PDE4 Activity
PDE4 activity was determined as described by Thompson et al. (Adv Cycl Nucl Res 10: 69-92, 1979) with some modifications (Bauer and Schwabe, Naunyn-Schmiedeberg's Arch Pharmacol 311: 193-198, 1980). At a final assay volume of 200 μl (96well microtiter plates) the assay mixture contained 20 mM Tris-HCl (pH 7.4), 5 mM MgCl2, 0.5 μM cAMP, [^3H]cAMP (about 30,000 cpm/assay), the test compound and an aliquot of cytosol from human neutrophils which mainly contains PDE4 activity as described by Schudt et al. (Naunyn-Schmiedeberg's Arch Pharmacol 344: 682-690, 1991); the PDE3-specific inhibitor Motapizone (1 μM) was included to suppress PDE3 activity originating from contaminating platelets.
To minimize problems with the solubility of the compounds, starting from example 20 serial dilutions of the compounds were prepared directly in DMSO and further diluted 1:100 (v/v) in the assays to obtain now the final concentrations of the inhibitors at a DMSO concentration of 1% (v/v) which by itself only slightly affected PDE4 activity.
After preincubation for 5 min at 37° C., the reaction was started by the addition of substrate (cAMP) and the assays were incubated for further 15 min at 37° C. 50 μl of 0.2 N HCl was added to stop the reaction and the assays were left on ice for about 10 min. Following incubation with 25 μg 5′-nucleotidase (Crotalus atrox snake venom) for 10 min at 37° C., the assays were loaded on QAE Sephadex A-25 (1 ml bed volume). The columns were eluted with 2 ml of 30 mM ammonium formiate (pH 6.0) and the eluate was counted for radioactivity. Results were corrected for blank values (measured in the presence of denatured protein) which were below 5% of total radioactivity. […] The IC50-values for the compounds according to the invention for the inhibition of the PDE4 activity were determined from the concentration-inhibition curves by nonlinear-regression.

human eosinophils = assay: Inhibition of C5a-stimulated chemiluminescence in human eosinophils; type: cell-based; conditions: for IC30: Eosinophil, read-out: Inhibition of C5a-stimulated chemiluminescence [-logIC30 (mol/l)] (converted)
Source text: c) Inhibition of C5a-stimulated Chemiluminescence in Human Eosinophils
Eosinophils were purified essentially as described in detail elsewhere (Hatzelmann A, Tenor H and Schudt C, Differential effects of non-selective and selective phosphodiesterase inhibitors on human eosinophil functions. Brit J Pharmacol 114: 821-831, 1995). Briefly, total granulocytes were first purified from blood (anticoagulated with 0.3% w/v sodium citrate) by dextran sedimentation, centrifugation on Ficoll Paque and hypotonic lysis of remaining red blood cells. For the further purification of the eosinophil fraction the magnetic cell separation (MACS) system from Miltenyi Biotec (Bergisch-Gladbach, Germany) was applied. Eosinophils were separated from neutrophils by negative selection using anti-CD16 microbeads in a two-step protocol using D- and BS-(formerly called B2-) separation columns. By this method human eosinophils with a purity of >99% and a viability of >97% were obtained.
The chemiluminescence (CL) assay was essentially performed as described (Hatzelmann et al., 1995). Briefly, measurements were performed in a “CL-buffer” (140 mM NaCl, 5 mM KCl, 1 mM MgCl2, 10 mM HEPES, pH 7.4) containing 1 mM CaCl2, 1 mg/ml glucose, 0.05% (w/v) BSA, 10 μM luminol and 4 μM microperoxidase (all values correspond to final concentrations in the assays) in a total volume of 0.5 ml at a cell concentration of 10^6 cells/ml. Aliquots (0.4 ml) of the cell suspension (containing luminol and microperoxidase) were preincubated for 5 min at 37° C. in the absence or presence of inhibitors (0.05 ml). Stock solutions of the inhibitors (10 mM) were prepared in DMSO and diluted 1:100 (v/v) in CL-buffer; subsequent dilutions were made in 1% DMSO/CL-buffer to achieve the final drug concentrations in the assays at a DMSO concentration of 0.1% (v/v) which by itself only weakly affected the CL response. […] After preincubation, the assays were transferred into a “Multi-biolumat LB 9505C” from Berthold (Wildbad, Germany) and stimulated by the addition of 0.05 ml C5a (dissolved in CL-buffer; 100 nM final concentration). CL was continuously recorded for 1 min (C5a) and the AUC (area under the curve) calculated. Inhibition of CL by the compounds under these conditions is given as −log IC30 (mol/l).

[1] = 100 nM C5a, 100 nM salbutamol included as additional cAMP trigger

Compound | melting point [°C] | Inhibition of PDE4 activity [-logIC50] (PDE4) | IC30 (human eosinophils; [1]) [nM] | effect on the CL response by itself (human eosinophils; 100 nM final concentration, C5a-stimulated) | Inhibition of C5a-stimulated chemiluminescence [-logIC30 (mol/l)] (human eosinophils; [1]) [mol/l]
COc1ccc(C2=NN(c3ccc(OCCNCC(O)c4cc(Cl)c(N)c(Cl)c4)cc3)C(=O)[C@@H]3CC=CC[C@H]23)cc1OC.O=C(O)C(=O)O (stereo partly drawn) | 136 to 138 |  |  |  | 
COc1ccc(C2=NN(C3CCN(CCS(=O)(=O)CCNCC(O)c4cc(Cl)c(N)c(Cl)c4)CC3)C(=O)[C@@H]3CC=CC[C@H]23)cc1OC.O=C(O)/C=C/C(=O)O (stereo partly drawn) | 137 to 138 |  |  |  | 
CCOc1ccc(C2=NN(C3CCN(C(=O)CNCC(O)c4cc(Cl)c(N)c(Cl)c4)CC3)C(=O)[C@@H]3CC=CC[C@H]23)cc1OCC.O=C(O)/C=C/C(=O)O (stereo partly drawn) | 172 to 173 |  |  |  | 
COc1ccc(C2=NN(C3CCN(C(=O)[C@H](C)NCC(O)c4cc(N)c(N)c(Cl)c4)CC3)C(=O)[C@@H]3CC=CC[C@H]23)cc1OC.O=C(O)/C=C/C(=O)O (stereo partly drawn) | 130 to 131 |  |  |  | 
COc1ccc(C2=NN(c3ccc(OCCCCNCC(O)c4ccc(O)c(CO)c4)cc3)C(=O)[C@@H]3CC=CC[C@H]23)cc1OC.O=C(O)/C=C/C(=O)O (stereo partly drawn) | 126 to 127 |  |  |  | 
COc1ccc(C2=NN(C3CCN(CCCCCCNCC(O)c4cc(Cl)c(N)c(C#N)c4)CC3)C(=O)[C@@H]3CC=CC[C@H]23)cc1OC.O=C(O)/C=C/C(=O)O (stereo partly drawn) | 142 to 143 |  |  |  | 
COc1ccc(C2=NN(CCNCC(O)c3cc(Cl)c(N)c(Cl)c3)C(=O)C3CC=CCC23)c2c1OC1(CCCC1)C2 (stereo not drawn) [Compound 8, (cis)-2-(2-[{2-(4-amino-3,5-dichlorophenyl)-2-hydroxyethyl}amino]-1-ethyl)-4-(2,3-dihydro-7-methoxybenzofuran-2-spiro-1′-cyclopentan-4-yl)-4a,5,8,8a-tetrahydro-2H-phthalazin-1-one] | 176 to 177 | 8.18 | 398 |  | 
COc1ccc(C2=NN(c3ccc(OCCCCNCC(O)c4cc(Cl)c(N)c(Cl)c4)cc3)C(=O)[C@@H]3CC=CC[C@H]23)cc1OC.O=C(O)/C=C/C(=O)O (stereo partly drawn) [Compound 21, (4aS,8aR)-2-(4-{4-[2-(4-Amino-3,5-dichlorophenyl)-2-hydroxy-ethylamino]-butoxyl}-phenyl)-4-(3,4-dimethoxy-phenyl)-4a,5,8,8a-tetrahydro-2H-phthalazin-1-one fumarate] | 126 to 127 | 10 | 302 |  | 
COc1ccc(C2=NN(Cc3ccc(OCCCCNCC(O)c4cc(Cl)c(N)c(Cl)c4)cc3)C(=O)[C@@H]3CC=CC[C@H]23)cc1OC.O=C(O)/C=C/C(=O)O (stereo partly drawn) [Compound 22, (4aS,8aR)-2-(4-{4-[2-(4-Amino-3,5-dichloro-phenyl)-2-hydroxy-ethylamino]-butoxy}-benzyl)-4-(3,4-dimethoxy-phenyl)-4a,5,8,8a-tetrahydro-2H-phthalazin-1-one fumarate] | 119 to 120 | 9.79 | 200 |  | 
COc1ccc(C2=NN(C3CCN(C(=S)NCCCCNCC(O)c4cc(Cl)c(N)c(Cl)c4)CC3)C(=O)[C@@H]3CC=CC[C@H]23)cc1OC (stereo partly drawn) [Compound 25, 4-[(4aS,8aR)-4-(3,4-Dimethoxy-phenyl)-1-oxo-4a,5,8,8a-tetrahydro-1H-phthalazin-2-yl]-piperidine-1-carbothioic acid {4-[2-(4-amino-3,5-dichloro-phenyl)-2-hydroxy-ethylamino]-butyl}-amide] | 139 to 144 | 10.6 | 794 |  | 
COc1ccc(C2=NN(C3CCN(S(=O)(=O)CCNCC(O)c4cc(Cl)c(N)c(Cl)c4)CC3)C(=O)[C@@H]3CC=CC[C@H]23)cc1OC.O=C(O)/C=C/C(=O)O (stereo partly drawn) [Compound 27, (4aS,8aR)-2-(1-{2-[2-(4-Amino-3,5-dichloro-phenyl)-2-hydroxy-ethylamino]-ethanesulfonyl}-piperidin-4yl)-4-(3,4-dimethoxy-phenyl)-4a,5,8,8a-tetrahydro-2H-phthalazin-1-one fumarate] | 169 to 171 | 11.2 | 398 |  | 
COc1ccc(C2=NN(C3CCN(S(=O)(=O)CCNCC(O)c4ccc(O)c(CO)c4)CC3)C(=O)[C@@H]3CC=CC[C@H]23)cc1OC (stereo partly drawn) [Compound 29, (4aS,8aR)-4-(3,4-Dimethoxy-phenyl)-2-(1-{2-[2-hydroxy-2-(4-hydroxy-3-hydroxymethyl-phenyl)-ethylamino]-ethanesulfonyl}-piperidin-4-yl)-4a,5,8,8a-tetrahydro-2H-phthalazin-1-one] | 97 to 99 |  |  |  | 
COc1ccc(C2=NN(C3CCN(C(=O)CCSCCNCC(O)c4cc(Cl)c(N)c(Cl)c4)CC3)C(=O)[C@@H]3CC=CC[C@H]23)cc1OC.Cl (stereo partly drawn) [Compound 30, (4aS,8aR)-2-[1-(3-{2-[2-(4-Amino-3,5-dichloro-phenyl)-2-hydroxy-ethylamino]-ethylsulfanyl}-propanoyl)-piperidin-4-yl]-4-(3,4-dimethoxy-phenyl)-4a,5,8,8a-tetrahydro-2H-phthalazin-1-one hydrochloride] | 118 to 120 | 10.7 | 200 |  | 
COc1ccc(C2=NN(C3CCN(C(=O)CCS(=O)(=O)CCNCC(O)c4cc(Cl)c(N)c(C#N)c4)CC3)C(=O)[C@@H]3CC=CC[C@H]23)cc1OC (stereo partly drawn) [Compound 32, 2-Amino-3-chloro-5-{2-[2-(3-{4-[(4aS,8aR)-4-(3,4-dimethoxy-phenyl)-1-oxo-4a,5,8,8a-tetrahydro-1H-phthalazin-2-yl]-piperidin-1-yl}-3-oxo-propane-1-sulfonyl)-ethylamino]-1-hydroxy-ethyl}-benzonitrile] | 102 to 103 | 11.4 | 229 |  | 
COc1ccc(C2=NN(C3CCN(C(=O)[C@H](C)NCC(O)c4cc(Cl)c(N)c(C#N)c4)CC3)C(=O)[C@@H]3CC=CC[C@H]23)cc1OC.Cl (stereo partly drawn) [Compound 33, 2-Amino-3-chloro-5-[2-((S)-2-{4-[(4aS,8aR)-4-(3,4-dimethoxy-phenyl)-1-oxo-4a,5,8,8a-tetrahydro-1H-phthalazin-2-yl]-piperidin-1-yl}-1-methyl-2-oxo-ethylamino)-1-hydroxy-ethyl]-benzonitrile hydrochloride] | 160 to 161 | 10.1 | 501 |  | 
CC(C)(C)NCC(O)c1ccc(O)c(CO)c1 (stereo not drawn) [salbutamol, reference compound] |  |  |  | hardly affected the CL response | 
(cis)-2-{4-(2-[{2-(4-amino-3,5-dichlorophenyl)-2-hydroxyethyl}amino]-1-ethyl}phenyl)-4-(3,4-dimethoxyphenyl)-4a,5,8,8a-tetrahydro-2H-phthalazin-1-one hemifumarate [Compound 5] |  |  |  |  | 6.70
